Measured values taken from US4859673A, “Amide derivatives and antiallergic agents containing the same” (Terumo Kabushiki Kaisha, priority 1986, dated 1989).

Test system: passive cutaneous anaphylaxis reaction (PCA reaction)
Assay: PCA reaction-inhibitory effects in rats (passive cutaneous anaphylaxis, oral administration)
Format: in vivo, Female Sprague-Dawley strain rats
Conditions: 1 hour before challenge
Procedure: DNP-ascaris (1 mg) prepared by combining a swine ascaris extract with 2,4-dinitrophenyl sulfate was mixe with 20 mg of aluminum hydroxide gel. The mixture was administered to rats subcutaneously on the back, and at the same time the animals were intraperitoneally given 2×10^10 dead Bordetella pertussis respectively. The same procedures were repeated after 14 days, and blood sample was obtained after 21 days to produce antisera.
Female Sprague-Dawley strain rats (8 weeks old) were sensitized by subcutaneously administering 0.1 ml of 1:256 diluted antisera (titer=1024)respectively on the grained back. After 48 hours, groups of four rats were orally given the amide derivatives produced in the examples above at various concentrations. After one hour, the rats were challenged by intravenously administering a 0.5% physiological saline solution of Evans Blue containing 1 mg of the NDP-ascaris from the tail. After 30 minutes, the animal was sacrificed by bleeding and the portion of the skin with the dye exuded was cut off. The cut skin was treated with 1N-KOH solution, and the dye was extracted by adding 9 ml of 0.6N-phosphoric acid-acetone (5:13) mixture. The supernatant from centrifugal separation was measured for absorbancy at 620 nm to determine amount of the dye. Percent inhibition at each of the concentrations of the amide derivatives was calculated in comparison with amount of the dye for control group. Results are shown in Table-I. Percent inhibition of tranilast, an antiallergic agent commercially available from Kissei Pharmaceutical Co., Ltd. under the trade name of Rizaben against PCA reaction was also shown in Table-I. As shown in Table-I, the amide derivatives of the invention produced high PCA reaction-inhibitory effects.

SMILES	Inhibition (%) mean ± SE, PCA reaction (30 mg/kg) [%]	Inhibition (%) mean ± SE, PCA reaction (100 mg/kg) [%]	Inhibition (%) mean ± SE, PCA reaction (10 mg/kg) [%]	Inhibition (%) mean ± SE, PCA reaction (200 mg/kg) [%]	Inhibition (%) mean ± SE, PCA reaction (300 mg/kg) [%]
COc1cc(/C=C/C=C/C(=O)NCCN2CCC(OC(c3ccccc3)c3ccccc3)CC2)ccc1OCc1ccccc1 [Example 1, 1-[2-(5-(3-methoxy-4-benzyloxyphenyl)-2,4-pentadienoyl)aminoethyl]-4-diphenylmethoxypiperidine]	0 ± 20	50 ± 14			
COc1cc(/C=C/C=C/C(=O)NCCN2CCC(OC(c3ccccc3)c3ccccc3)CC2)ccc1OC1CCCO1 (stereo not drawn) [Example 2, 1-[2-(5-(3-methoxy-4-(2-tetrahydrofuranyl)oxyphenyl)-2,4-pentadienoyl)aminoethyl]-4-diphenylmethoxypiperidine]	71 ± 6		51 ± 18		
CCOCOc1ccc(/C=C/C=C/C(=O)NCCN2CCC(OC(c3ccccc3)c3ccccc3)CC2)cc1OC [Example 3, 1-[2-(5-(3-methoxy-4-ethoxymethoxyphenyl)-2,4-pentadienoyl)aminoethyl]-4-diphenylmethoxypiperidine]	55 ± 9	78 ± 8			
COc1ccc(/C=C/C(=O)Nc2ccccc2C(=O)O)cc1OC [Tranilast, reference compound]		37 ± 8		40 ± 10	42 ± 5
